Columns and labels:
[1] = tested on: C57BL/6J mice; assay: Intramuscular OVA immunization of mice: serum antibodies and splenocyte cytokines; assay type: in vivo, mouse; conditions: for serum anti-OVA IgG1 titer / OVA-specific IL-13 production by splenocytes: i.m. day 0 and day 10 with OVA; for serum anti-OVA IgG1 titer: serum day 17; for OVA-specific IL-13 production by splenocytes: splenocytes day 17, OVA 48 hours
Procedure: Mice were immunized intramuscularly on day 0 and day 10 with K3 CpG (10 μg), 3′3′/2′3′-cGAMP (1 μg), c-di-GMP (1 μg), DMXAA (50 μg), or OVA (10 μg) comprising or not comprising K3+3′3′/2′3′-cGAMP/c-di-GMP/DMXAA. On day 17, OVA specific sera IgG1 and IgG2c were measured by ELISA.
(B—C) mice were immunized intramuscularly on day 0 and day 10 with K3 CpG (10 μg), 3′3′/2′3′-cGAMP (1 μg), c-di-GMP (1 μg), DMXAA (50 μg), or OVA (10 μg) comprising or not comprising K3+3′3′/2′3′-cGAMP/c-di-GMP/DMXAA. Splenocytes were stimulated for 48 hours with OVA (10 μg/ml) protein. Production of IFNγ and IL-13 was measured by ELISA.
On day 17, the splenocytes were isolated and stimulated for 48 hours with a MHC class I (OVA257) or a MHC class II (OVA323) specific OVA or an OVA peptide.
On day 17, OVA specific sera IgG1 and IgG2c were measured by ELISA as previously described [Kuroda et al., Immunity. (2011) 34; 514-526]. The secondary antibodies used in ELISA of IgG2c and IgG1 were horseradish peroxidase conjugate goat anti-mouse IgG2c and IgG1 (Bethyl Laboratories, Montgomery, Tex.). On day 17, splenocytes were collected to prepare a single cell suspension using gentle MACS dissociator (miltenyi Biotech, Gladbach, Germany). […] IFNγ and IL-13 production was measured by ELISA.

[2] = tested on: mice; assay: OVA specific serum IgE after immunization; conditions: i.m. day 0 and day 10, serum day 17
[3] = tested on: IRF3/7, STING, MyD88, IL-12, and type I IFN signaling
Procedure: The vertical axis of the left panel indicates the concentration of IFNγ (ng/ml), and the vertical axis of the right panel indicates the concentration of IL-13 (ng/ml). […] The splenocytes were stimulated for 48 hours with OVA.
On day 17, OVA specific sera IgG2c and IgG1 were measured by ELISA.
The vertical axis of the left panel indicates the concentration of IFNγ (ng/ml), and the vertical axis of the right panel indicates the concentration of IL-13 (ng/ml). […] (D) The splenocytes were stimulated for 48 hours with OVA proteins.
On day 17, OVA specific serum IgG2c and IgG1 were measured by ELISA. Further, splenocytes were stimulated for 48 hours with OVA to measure IFNγ production by ELISA.
On day 17, OVA specific sera IgG2c and IgG1 were measured by ELISA. Further, splenocytes were stimulated for 48 hours with an OVA protein to measure IFNγ production by ELISA.

| SMILES | serum anti-OVA IgG1 titer [1] | OVA-specific IL-13 production by splenocytes [1] | adjuvant type ([1]; OVA immunization, antibody and T cell responses) | IgE of the serum in mice immunized with OVA [2] | dependency of Th2 responses on type I IFN signaling ([3]; IFNAR KO mice) | dependency of induced antibody responses on type I IFN signaling ([3]; IFNAR KO mice) | dependency of induced T cell responses on IRF3/7 and MyD88 ([3]; IRF3/7 DKO and MyD88 KO mice) | dependency of induced antibody and T cell responses on STING ([3]; Tmem173gt mice) |
| --- | --- | --- | --- | --- | --- | --- | --- | --- |
| Nc1nc2c(ncn2[C@@H]2O[C@@H]3COP(=O)(O)O[C@H]4[C@@H](O)[C@H](n5cnc6c(=O)[nH]c(N)nc65)O[C@@H]4COP(=O)(O)O[C@H]3[C@H]2O)c(=O)[nH]1 [c-di-GMP] | high | production of OVA-specific IL-13 | – | – | – | – | – | – |
| Nc1nc2c(ncn2[C@@H]2O[C@@H]3COP(=O)(O)O[C@H]4[C@@H](O)[C@H](n5cnc6c(N)ncnc65)O[C@@H]4COP(=O)(O)O[C@H]3[C@H]2O)c(=O)[nH]1 [cGAMP, 3′3′-cGAMP] | high | production of OVA-specific IL-13 | type 2 adjuvant | induce IgE | not dependent thereon | dependent on type I IFN signaling | partially dependent on IRF3/7 and surprisingly dependent on MyD88 | completely dependent on STING |
| Cc1ccc2c(=O)c3cccc(CC(=O)O)c3oc2c1C [DMXAA] | high | production of OVA-specific IL-13 | – | – | – | – | – | – |

Source: patent publication US11058758B2, “TH1-inducing adjuvant comprising combination of different nucleic acid adjuvants, and use of same” (National Institutes of Biomedical Innovation, Health and …, priority 2014, dated 2021)
